This passage reports GI50 and TGI results from PubChem BioAssay (NCI).

What all share (assay): NCI anticancer screen, dose series, 48 h
Test [1] relates to MOLT-4 leukemia.
Test [2] concerns NCI/ADR-RES ovarian.
The subject of test [3] is M14 melanoma.
In test [4] the test system is OVCAR-8 ovarian.
In test [5] the test system is HOP-62 NSCLC.
Test [6] deals with SK-MEL-5 melanoma.
Test [7] concerns EKVX NSCLC.
In test [8] the test system is RXF 393 renal.

Several values for one entry are separate records, joined by “and”; a condition that tells them apart may be missing. Equal values may be shown once.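 Cells were grown in 96-well plates and exposed to each compound for 48 hours at five concentrations; endpoints were interpolated linearly between bracketing concentrations, or set to the highest concentration if not reached. GI50 marks 50% less growth. TGI marks complete inhibition of growth.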

As for `COC(=O)[C@@H](C)C[C@H](Cc1ccccc1)NC(=O)c1csc([C@@H](C[C@H](C(C)C)N(C)C(=O)[C@@H](NC(=O)[C@H]2CCCCN2C)C2CC2)OC(C)=O)n1`, the GI50 is 4.64 nM and 1.65 nM in test [1]; 48.8 nM and 60.3 nM in test [2]; 0.455 nM and < 1.65 nM in test [3]; 0.629 nM and 1.65 nM in test [4]; 0.745 nM and 1.65 nM in test [5]; 4.6 nM and 1.65 nM in test [7]. In addition, the TGI in test [1] is over 16500 nM; in test [2], over 16500 nM; in test [3], under 1.65 nM; in test [4], over 16500 nM; in test [5] it was over 16500 nM; in test [6], 13.8 nM and 2.03 nM. The TGI in test [7] is over 16500 nM.

Regarding `O=C1C(=O)c2cccnc2-c2ncccc21`, the GI50 was 76.8 nM in test [8]; 171 nM in test [1]; 89.8 nM in test [2]; 159 nM in test [3]; 166 nM in test [4]; 225 nM in test [5]. Further, the GI50 in test [6] was 239 nM; in test [7], 322 nM. The TGI was determined as 266 nM in test [8]; 509 nM in test [1]; 281 nM in test [2]; 441 nM in test [3]; 727 nM in test [4]; 882 nM in test [5]. For the same molecule, the TGI worked out at 801 nM in test [6] and 1290 nM in test [7].

`CCN(CC)c1ccc(C(=O)c2ccc(N(CC)CC)cc2)cc1`: the GI50 was 444 nM in test [8]; 718 nM in test [1]; 355 nM in test [2]; 614 nM in test [3]; 720 nM in test [4]; 805 nM in test [5]. Also, the GI50 is 384 nM in test [6] and 1190 nM in test [7]. Moreover, the TGI was 1630 nM in test [8]; 19800 nM in test [1]; 1890 nM in test [2]; over 30100 nM in test [3]; over 38900 nM in test [4]; 98200 nM in test [5]. The TGI is 12700 nM in test [6] and over 70300 nM in test [7].

In the case of `C=CC(Cl)(CBr)CCC(Br)C(C)(C)Cl` (centres undefined), the TGI is 31200 nM in test [8]; 21100 nM in test [1]; 49800 nM in test [2]; 29000 nM in test [3]; 31500 nM in test [4]; 30600 nM in test [5]. Besides, the figures for the TGI in test [6] and in test [7] were 25800 nM and 42400 nM, respectively.

In the case of `CC(C)=CC1=C2C3=C(C(=O)C4(O)Oc5c(C)c6c7c(c5OC24C)[C@@H](C)CC[C@@H]7[C@@H](C)C[C@H]6C=C(C)C)C(C)CCC3C(C)C1` (some centres undefined), the GI50 in test [8], in test [1], in test [2], in test [3], in test [4] and in test [5] was over 100000 nM throughout. In addition, the GI50 in test [6] and in test [7] was over 100000 nM in each case. Besides, the TGI in test [8], in test [1], in test [2], in test [3], in test [4] and in test [5] was over 100000 nM throughout. In addition, the TGI in test [6] and in test [7] was over 100000 nM each time.

`C[N+]1=C(/C=C\C=C\c2ccccc2)C(C)(C)c2ccccc21`: the GI50 in test [8] is 1750 nM; in test [1], 2130 nM; in test [2], 9450 nM; in test [3] it was 2140 nM; in test [4], 2110 nM; in test [5], 4100 nM. The GI50 in test [7] was 2420 nM. In addition, the TGI amounted to 3620 nM in test [8]; 6440 nM in test [1]; 33900 nM in test [2]; 7710 nM in test [3]; 10500 nM in test [4]; 15100 nM in test [5]. This molecule also returned a TGI in test [7] of 14400 nM.

Regarding `COC(=O)CC[C@H](Cc1ccccc1)NC(=O)c1csc([C@@H](C[C@H](C(C)C)N(C)C(=O)[C@@H](NC(=O)[C@H]2CCCCN2C)C(C)C)OC(C)=O)n1`, the GI50 in test [8] is under 2.5 nM; in test [1] it was under 2.5 nM; in test [2] it was 71.4 nM; in test [3] it was under 2.5 nM; in test [4], 3.18 nM; in test [5] it was under 2.5 nM. Further, the GI50 in test [6] was under 2.5 nM; in test [7], 8.01 nM. In addition, the TGI in test [8] was over 25000 nM; in test [1], 10500 nM; in test [2] it was over 25000 nM; in test [3], over 25000 nM; in test [4] it was over 25000 nM; in test [5] it was over 25000 nM. Besides, the TGI is 98.4 nM in test [6] and over 25000 nM in test [7].

In the case of `O=C1c2ccccc2-c2c1c1ccccc1c(=O)n2CCCn1ccnc1`, the GI50 was 6150 nM in test [8]; 274 nM in test [1]; 1810 nM in test [2]; 5710 nM in test [3]; 870 nM in test [4]; 2720 nM in test [5]. The GI50 in test [7] is 9090 nM. The TGI in test [8] was over 100000 nM; in test [1], 763 nM; in test [2] it was 6090 nM; in test [3], over 100000 nM; in test [4], 2390 nM; in test [5] it was 13000 nM. In test [7], this molecule registered a TGI of over 100000 nM.

Regarding `Cc1ncc(C(=O)Nc2ccc(CN3CCN(C)CC3)c(C(F)(F)F)c2)cc1C#Cc1cnc(N)cc1C#N`, the GI50 in test [8] is 227 nM; in test [1], 336 nM; in test [2] it was 2120 nM; in test [3], 49 nM; in test [4] it was 1300 nM; in test [5], 573 nM. Moreover, the figures for the GI50 in test [6] and in test [7] were 711 nM and 1120 nM, respectively. The TGI came out at 1470 nM in test [8]; 3160 nM in test [1]; 5240 nM in test [2]; 400 nM in test [3]; 5350 nM in test [4]; 2910 nM in test [5]. In addition, the figures for the TGI in test [6] and in test [7] were 2760 nM and 3380 nM, respectively.
